Measurements taken from the NIST ThermoML archive (doi:10.1021/acs.jced.6b00496).

How the values were obtained:
[1] = 101.33 kPa, Liquid; for speed of sound: Sing-around technique in a fixed-path interferometer; for mass density: Vibrating tube method
[2] = xn = mol fraction of the nth substance listed; details: 81.5 kPa, Liquid, x2 = 0; for speed of sound: Sing-around technique in a fixed-path interferometer; for mass density: Vibrating tube method

CCn1cc[n+](C)c1.F[B-](F)(F)F [1-ethyl-3-methylimidazolium tetrafluoroborate]
[1]
Details	mass density [kg/m3]	speed of sound [m/s]
293.15 K	1285.95	1640.4
298.15 K	1282.14	1628.4
303.15 K	1278.34	1616
308.15 K	1274.55	1604.9
313.15 K	1270.78	1593.4
318.15 K	1267.03	1582
323.15 K	1263.3	1570.6
328.15 K	1259.58	1559.4
333.15 K	1255.88	1548.2
338.15 K	1252.2	1537.2
343.15 K	1248.54	1526.2

CC(=O)N(C)C [N,N-dimethylethanamide]
[1]
Details	mass density [kg/m3]	speed of sound [m/s]
293.15 K	941.341	1477.6
298.15 K	936.729	1457.4
303.15 K	932.112	1437.4
308.15 K	927.492	1417.5
313.15 K	922.863	1397.8
318.15 K	918.23	1378.2
323.15 K	913.586	1358.6
328.15 K	908.932	1339.2
333.15 K	904.268	1319.9
338.15 K	899.595	1300.8
343.15 K	894.909	1281.7

CC(=O)N(C)C [N,N-dimethylethanamide] + CCn1cc[n+](C)c1.F[B-](F)(F)F
[2]
Details	mass density [kg/m3]	speed of sound [m/s]
293.15 K	941.341	1477.6
298.15 K	936.729	1457.4
303.15 K	932.112	1437.4
308.15 K	927.492	1417.5
313.15 K	922.863	1397.8
318.15 K	918.23	1378.2
323.15 K	913.586	1358.6
328.15 K	908.932	1339.2
333.15 K	904.268	1319.9
338.15 K	899.595	1300.8
343.15 K	894.909	1281.7

CN(C)C=O [dimethylformamide]
[1]
Details	mass density [kg/m3]	speed of sound [m/s]
293.15 K	948.743	1477.1
298.15 K	943.978	1457.6
303.15 K	939.201	1438
308.15 K	934.417	1418.7
313.15 K	929.62	1399.3
318.15 K	924.812	1380
323.15 K	919.993	1360.9
328.15 K	915.159	1341.7
333.15 K	910.312	1322.7
338.15 K	905.445	1303.7
343.15 K	900.565	1284.8

CN(C)C=O [dimethylformamide] + CCn1cc[n+](C)c1.F[B-](F)(F)F
[2]
Details	mass density [kg/m3]	speed of sound [m/s]
293.15 K	948.743	1477.1
298.15 K	943.978	1457.6
303.15 K	939.201	1438
308.15 K	934.417	1418.7
313.15 K	929.62	1399.3
318.15 K	924.812	1380
323.15 K	919.993	1360.9
328.15 K	915.159	1341.7
333.15 K	910.312	1322.7
338.15 K	905.445	1303.7
343.15 K	900.565	1284.8
